In US8796244B2, “Imidazopyridine derivatives as inhibitors of receptor tyrosine kinases” (Astex Therapeutics Ltd, priority 2008, dated 2014) one finds IC50 and inhibition data, which are given here for 50 compounds.

In general, inhibition refers to how much of the control response was suppressed.

The structures appear in SMILES notation. Where a name gives a salt, the structure may show the parent alone. Read-outs that look alike come from different tables or passages of the source.

In assay [1] the test system is LP-1 cell line (FGF-1/Heparin induced pERK). Kind of assay: Cell-based pERK ELISA, LP-1 cells. The following applies: Homo sapiens, LP-1, read-out: LP-1 pERK ELISA (μM). For orientation: In an ELISA, binding on a coated surface is turned into a signal by an enzyme label.
Assay [2] concerns parental wild-type Ba/F3 cells. The assay is described as follows: Ba/F3 (WT) cell proliferation assay (Alamar Blue). Type of assay: cell-based. To be noted: Mus musculus; for inhibition at 3 µM / inhibition at 10 µM / inhibition at 1 µM: BaF3, read-out: BaF3 WT prolif, % inhibition. (In general: Resazurin is reduced to fluorescent resorufin, in cell work by metabolically active cells.)

The mark [3] stands for this setting: BaF3, 72 hours, Alamar Blue, read-out: BaF3 WT prolif.

Turning to `O=C(NCC(F)(F)F)Nc1cccc(-c2cnc3cc(-c4ccncc4)ccn23)c1` [Example 83, 1-[3-(7-Pyridin-4-yl-imidazo[1,2-a]pyridin-3-yl)-phenyl]-3-(2,2,2-trifluoro-ethyl)-urea], in assay [1], the IC50 is 0.012 µM.

In the case of `Cc1nccn1-c1ccn2c(-c3cccc(NC(=O)NCC(F)(F)F)c3)cnc2c1` [Example 116, 1-{3-[7-(2-Methylimidazol-1-yl)-1,7-dihydroimidazol[1,2-a]pyridin-3-yl]-phenyl}-3-(2,2,2-trifluoroethyl)urea], the IC50 in assay [1] is 1.9 µM. Turning to `Nc1cnc(-c2ccn3c(-c4cccc(NC(=O)NCC(F)(F)F)c4)cnc3c2)nc1Cl` [Example 170], in assay [2], the inhibition at 3 µM was found to be 14%. `Cc1cn2nc(-c3ccn4c(-c5cccc(NC(=O)NCC(F)(F)F)c5)cnc4c3)sc2n1` [Example 225]: in assay [2], the inhibition at 10 µM came to 0%. As for `Nc1cccnc1-c1ccn2c(-c3cccc(NC(=O)NCC(F)(F)F)c3)cnc2c1` [Example 125, 1-{3-[7-(3-Amino-pyridin-2-yl)-imidazo[1,2-a]pyridin-3-yl]-phenyl}-3-(2,2,2-trifluoro-ethyl)-urea hydrochloride], the IC50 in assay [2] (BaF3, 72 h, read-out: BaF3 WT prolif (μM)) worked out at 2.1 µM. For the compound `O=C(NCC(F)(F)F)Nc1cccc(-c2cnc3cc(-c4ccc(OC5CCNCC5)nn4)ccn23)c1` [Example 130, 1-(3-{7-[6-(Piperidin-4-yloxy)-pyridazin-3-yl]-imidazo[1,2-a]pyridin-3-yl}-phenyl)-3-(2,2,2-trifluoro-ethyl)-urea], the inhibition at 10 µM in assay [2] was 26%. For the compound `CC(C)n1ccnc1C#Cc1ccn2c(-c3cccc(NC(=O)NCC(F)(F)F)c3)cnc2c1` [Compound 266], the IC50 in assay [2] (setting [3]) came to 1.4 µM.

Regarding `CC(F)(F)c1cnc(-c2ccn3c(-c4cccc(NC(=O)NCC(F)(F)F)c4)cnc3c2)nc1` [Compound 293], in assay [2], the inhibition at 3 µM was 36%. As to `O=C(NCC(F)(F)F)Nc1cccc(-c2cnc3cc(-c4ncc(C(=O)O)cn4)ccn23)c1` [Compound 333], the inhibition at 1 µM in assay [2] was found to be 0%. On to `Cn1ccnc1C#Cc1ccn2c(-c3cccc(NC(=O)NCC(F)(F)F)c3)cnc2c1` [Compound 282], for which the inhibition at 10 µM in assay [2] was 23%. For the same compound, the IC50 in assay [2] (setting [3]) worked out at 2.8 µM.

In the case of `NC(=O)c1ccc(-c2ccn3c(-c4cccc(NC(=O)NCC(F)(F)F)c4)cnc3c2)nc1` [Example 207], the inhibition at 10 µM in assay [2] was found to be 14%. Consider `CCOC(=O)Nc1nc(-c2ccn3c(-c4cccc(NC(=O)NCC(F)(F)F)c4)cnc3c2)ncc1F` [Compound 315], for which, in assay [2], the inhibition at 10 µM was determined as 35%. On the same count and under the same terms, in the case of `O=C(NCC(F)(F)F)Nc1cccc(-c2cnc3cc(-c4nccc(-n5ccnc5)n4)ccn23)c1` [Example 213] it was 22%; in that of `Nc1nc(-c2ccn3c(-c4cccc(NC(=O)NCC(F)(F)F)c4)cnc3c2)ccc1C(F)(F)F` [Example 231], 23%.

With `CNc1cc(-c2ccn3c(-c4cccc(NC(=O)NCC(F)(F)F)c4)cnc3c2)nc(SC)n1` [Example 218], the inhibition at 10 µM in assay [2] is 30%.

On to `O=C(NCC(F)(F)F)Nc1cccc(-c2cnc3cc(-c4ncc(F)c(NC5CC5)n4)ccn23)c1` [Example 180], for which, in assay [2], the inhibition at 10 µM worked out at 42%. For `Nc1cc(C(F)(F)F)nc(-c2ccn3c(-c4cccc(NC(=O)NCC(F)(F)F)c4)cnc3c2)n1` [Compound 322], the IC50 in assay [2] (setting [3]) turned out to be 1.2 µM.

`N#Cc1cc(NC(=O)NCC(F)(F)F)cc(-c2cnc3cc(-c4ccnc(C(F)(F)F)n4)ccn23)c1` [Compound 299]: the inhibition at 1 µM in assay [2] stood at 17%.

For `Nc1nc(-c2ccn3c(-c4cccc(NC(=O)NCC(F)(F)F)c4)cnc3c2)ncc1CO` [Compound 332], in assay [2], the inhibition at 10 µM was 0%. Regarding `O=C(NCC(F)(F)F)Nc1cc(Cl)cc(-c2cnc3cc(-c4ncccn4)ccn23)c1` [Compound 309], the IC50 in assay [2] (setting [3]) worked out at 2.3 µM.

Regarding `O=C(NCC(F)(F)F)Nc1cc(Br)cc(-c2cnc3cc(-c4ccnc(C(F)(F)F)n4)ccn23)c1` [Compound 294], the inhibition at 3 µM in assay [2] worked out at 22%. As to `O=C(NCC(F)(F)F)Nc1cc(F)cc(-c2cnc3cc(-c4ncccn4)ccn23)c1` [Compound 302], in assay [2], the inhibition at 10 µM was found to be 0%. On the same count and under the same terms, in the case of `O=C(NCC(F)(F)F)Nc1cccc(-c2cnc3cc(-c4ccc(OC5CCCNC5)nn4)ccn23)c1` (stereo not drawn) [Example 131, 1-(3-{7-[6-(Piperidin-3-yloxy)-pyridazin-3-yl]-imidazo[1,2-a]pyridin-3-yl}-phenyl)-3-(2,2,2-trifluoro-ethyl)-urea] it was 2.9%. As for `Cc1nnc(-c2ccn3c(-c4cccc(NC(N)=O)c4)cnc3c2)o1` [Compound 328], the inhibition at 3 µM in assay [2] came to 34%. As for `COc1ccc(-c2ccn3c(-c4cccc(NC(=O)NCC(F)(F)F)c4)cnc3c2)nc1` [Example 204], the IC50 in assay [2] (setting [3]) turned out to be 0.82 µM. In the case of `CN(C)S(=O)(=O)n1ccnc1-c1ccnc(-c2ccn3c(-c4cccc(NC(=O)NCC(F)(F)F)c4)cnc3c2)n1` [Example 216], the inhibition at 10 µM in assay [2] turned out to be 28%.

On to `Cc1cc2ncc(-c3cccc(NC(=O)NCC(F)(F)F)c3)n2cc1C` [Example 77, 1-[3-(6,7-Dimethyl-imidazo[1,2-a]pyridin-3-yl)-phenyl]-3-(2,2,2-trifluoro-ethyl)-urea formate], for which the inhibition at 10 µM in assay [2] came to 53%. Take `CC(C)c1cnc(N)nc1-c1ccn2c(-c3cccc(NC(=O)NCC(F)(F)F)c3)cnc2c1` [Example 242]: the IC50 in assay [2] (setting [3]) is 1.7 µM. With `CC(C)(O)c1cccc(-c2ccn3c(-c4cccc(NC(=O)NCC(F)(F)F)c4)cnc3c2)c1` [Compound 320], the IC50 in assay [2] (setting [3]) worked out at 0.71 µM.

In the case of `NC(=O)c1ccnc(-c2ccn3c(-c4cccc(NC(=O)NCC(F)(F)F)c4)cnc3c2)c1` [Example 209], the inhibition at 10 µM in assay [2] was 0%.

Take `Nc1nccnc1-c1ccn2c(-c3cccc(NC(=O)NCC(F)(F)F)c3)cnc2c1` [Example 84, 1-{3-[7-(3-Amino-pyrazin-2-yl)-imidazo[1,2-a]pyridin-3-yl]-phenyl}-3-(2,2,2-trifluoro-ethyl)-urea]: the IC50 in assay [2] (setting [3]) amounted to 1.4 µM. Take `O=C(NCC(F)(F)F)Nc1cccc(-c2cnc3cc(-c4cnc(O)cn4)ccn23)c1` [Example 105, 1-{3-[7-(5-Hydroxy-pyrazin-2-yl)-imidazo[1,2-a]pyridin-3-yl]-phenyl}-3-(2,2,2-trifluoro-ethyl)-urea hydrochloride]: the inhibition at 10 µM in assay [2] is 16%. Take `O=C(NCC(F)(F)F)Nc1cccc(-c2cnc3cc(-c4nccc(N5CCC(O)CC5)n4)ccn23)c1` [Example 109, 1-(3-{7-[4-(4-Hydroxy-piperidin-1-yl)-pyrimidin-2-yl]-imidazo[1,2-a]pyridin-3-yl}-phenyl)-3-(2,2,2-trifluoro-ethyl)-urea]: the IC50 in assay [2] (setting [3]) amounted to 32 µM. As to `O=C(NCC(F)(F)F)Nc1cccc(-c2cnc3cc(-c4cc(F)ccn4)ccn23)c1` [Example 103, 1-{3-[7-(4-Fluoro-pyridin-2-yl)-imidazo[1,2-a]pyridin-3-yl]-phenyl}-3-(2,2,2-trifluoro-ethyl)-urea], the IC50 in assay [2] (setting [3]) is 0.078 µM. Turning to `Nc1cnc(-c2ccn3c(-c4cccc(NC(=O)NCC(F)(F)F)c4)cnc3c2)nc1N` [Compound 312], the inhibition at 10 µM in assay [2] is 3%. With `COc1cncnc1-c1ccn2c(-c3cccc(NC(=O)NCC(F)(F)F)c3)cnc2c1` [Example 140, 1-{3-[7-(5-Methoxy-pyrimidin-4-yl)-imidazo[1,2-a]pyridin-3-yl]-phenyl}-3-(2,2 ,2-trifluoro-ethyl)-urea], in assay [2], the inhibition at 10 µM is 7.1%.

For the compound `CN(C)c1cc(-c2ccn3c(-c4cccc(NC(=O)NCC(F)(F)F)c4)cnc3c2)nc(C(F)(F)F)n1` [Example 214], the IC50 in assay [2] (setting [3]) came out at 2.6 µM. As to `CC(=O)c1cnc(-c2ccn3c(-c4cccc(NC(=O)NCC(F)(F)F)c4)cnc3c2)nc1N` [Compound 308], in assay [2], the inhibition at 10 µM is 0%.

With `O=C(NCC(F)(F)F)Nc1cccc(-c2cnc3cc(-c4nnc(CCN5CCCC5)s4)ccn23)c1` [Example 241], in assay [2], the inhibition at 10 µM came to 4.2%. As for `Nc1nc(-c2ccn3c(-c4cccc(NC(=O)NCC(F)(F)F)c4)cnc3c2)ncc1C(=O)O` [Compound 277], in assay [2], the inhibition at 10 µM was 0%.

Take `Cc1cc(Cl)nnc1-c1ccn2c(-c3cccc(NC(=O)NCC(F)(F)F)c3)cnc2c1` [Example 136, 1-{3-[7-(6-Chloro-4-methyl-pyridazin-3-yl)-imidazol[1,2-a]pyridin-3-yl]-phenyl}-3-(2,2,2-trifluoro-ethyl)-urea]: the IC50 in assay [2] (setting [3]) was determined as 0.44 µM. Take `COc1cc(NC(=O)NCC(F)(F)F)cc(-c2cnc3cc(-c4ccnc(C(F)(F)F)n4)ccn23)c1` [Compound 298]: the IC50 in assay [2] (setting [3]) was determined as 3 µM. With `Cn1cncc1/C=C/c1ccn2c(-c3cccc(NC(=O)NCC(F)(F)F)c3)cnc2c1` [Example 155, 1-(3-{7-[(E)-2-(3-Methyl-3H-imidazol-4-yl)-vinyl]-imidazo[1,2-a]pyridin-3-yl}-phenyl)-3-(2,2,2-trifluoro-ethyl)-urea], the inhibition at 3 µM in assay [2] was determined as 28%. With `CNC(=O)c1ccnc(-c2ccn3c(-c4cccc(NC(=O)NCC(F)(F)F)c4)cnc3c2)n1` [Example 220], the IC50 in assay [2] (setting [3]) is 1.5 µM. In the case of `CCOc1cnc(-c2ccn3c(-c4cccc(NC(=O)NCC(F)(F)F)c4)cnc3c2)nc1` [Example 240], the inhibition at 10 µM in assay [2] is 17%. As to `O=C(NCC(F)(F)F)Nc1cccc(-c2cnc3cc(-c4ncc(C(F)(F)F)cn4)ccn23)c1` [Example 244], in assay [2], the inhibition at 3 µM is 17%. In the case of `O=C(NCC(F)(F)F)Nc1cccc(-c2cnc3cc(-c4cc(=O)[nH]cn4)ccn23)c1` [Example 184], the inhibition at 10 µM in assay [2] worked out at 22%. Consider `CC(C)c1cc(N)nc(-c2ccn3c(-c4cccc(NC(=O)NCC(F)(F)F)c4)cnc3c2)n1` [Compound 323], for which the inhibition at 1 µM in assay [2] worked out at 0%. Take `O=C(NCC(F)(F)F)Nc1cccc(-c2cnc3cc(-c4ccc(CCO)cn4)ccn23)c1` [Example 122, 1-(3-{7-[5-(2-Hydroxy-ethyl)-pyridin-2-yl]-imidazo[1,2-a]pyridin-3-yl}-phenyl)-3-(2,2,2-trifluoro-ethyl)-urea]: the IC50 in assay [2] (setting [3]) came out at 2.4 µM. Take `CNc1nc(-c2ccn3c(-c4cccc(NC(=O)NCC(F)(F)F)c4)cnc3c2)ncc1N` [Compound 313]: the inhibition at 10 µM in assay [2] was found to be 18%.
